Where “and” joins values, the source holds several entries; their conditions need not be identical. Equal values may be shown once.
Experiments:
Type in all cases: in vivo, human
[1] = tested on: expert panel of seven people; experiment: Scoring of sweet taste aspects versus base solution (5% sucrose and 0.03% citric acid); details: for Astringent, average score / Lingering Sweet, average score / Overall Sweet, average score / Upfront Sweet, average score / Volatile Off-Note, average score: score versus base, 0 same, 3 much higher, −3 much lower
[2] = tested on: Four sweet sensitive panelists; experiment: Iso-sweet potency versus standard sucrose solutions; details: for Iso-sweet potency: calculated from mean sweet equivalence concentrations
Protocol: 10 mg iso-mogroside VI (FIG. 7) was dissolved in […] water to make 100 ppm iso-mogroside VI solution. The working solution of 11-epi-mogroside V (FIG. 8) was 374 ppm (9.34 mg 11-epi-mogroside V in 25 mL water), A series of standard sucrose solutions were prepared (0.50, 0.75, 1.00, 1.25, 1.50%) as sweetness references.
Four sweet sensitive panelists evaluated 100 ppm iso-mogroside VI and 374 ppm 11-epi-mogroside V and the sucrose standards, and were asked to give sweet equivalence concentrations to sucrose. The mean sweet equivalence concentrations of each compound were used to calculate the iso-sweet potency.

[3] = tested on: sweet sensitive taste panel; experiment: Sweetness ranking against sucrose solutions to determine sucrose equivalence
Excerpt: The term “sucrose equivalence” refers to the equivalence in sweetness of a composition containing at least one non-sucrose sweetener to a reference sucrose solution. Typically, taste panellists are trained to detect sweetness of reference sucrose solutions containing between 1% and 15% sucrose (w/v). Other non-sucrose sweeteners may then be tasted at a series of dilutions to determine the concentration of the non-sucrose sweetener that is as sweet (i.e. isosweet) to a given sucrose reference. The term “isosweet” refers to compositions that have equivalent sweetness. Typically, the sweetness of a given composition is measured with reference to a solution of sucrose. See “A Systematic Study of Concentration-Response Relationships of Sweeteners,” G. E. DuBois, D. E. Walters, S. S. Schiffman, Z. S. Warwick, B. J. Booth, S. D. Pecore, K. Gibes, B. T. Carr, and L. M. Brands, in Sweeteners: Discovery, Molecular Design and Chemoreception, D. E. Walters, F. T. Orthoefer, and G. E. DuBois, Eds., American Chemical Society, Washington, D.C. (1991), pp 261-276.
A sweet sensitive taste panel ranked the sweetness of solutions of a mixture of sweeteners (“Mixture 1”) in relation to sucrose solutions at a range of concentrations to determine sucrose equivalence. Mixture 1 was a combination of fractions 11 to 18 of Example 2 and contained 8.16 wt % 11-O-mogroside V and 61.6 wt % mogroside V. The results are shown in Table 6 below.
A sweet sensitive taste panel ranked the sweetness of solutions of various sweeteners (mogroside V, mogroside IV, siamenoside, neomogroside, 11-O-mogroside V) in relation to sucrose solutions at a range of concentrations to determine sucrose equivalence. The sweeteners were obtained using an Agilent 1100 preparative HPLC system with a Phenomenex Luna C18 (2) column (5 μm, 210×21.4 mm).

[4] = tested on: sweet sensitive taste panel; experiment: Sweetness enhancement: sweetener added to 5% (w/v) sucrose, ranked against 5, 6, 6.5 and 7% (w/v) sucrose solutions; details: for Average Score: ranked against 5, 6, 6.5 and 7% sucrose; for Sweetness enhancer effect: increase in sweetness of 5% (w/v) sucrose greater than sweetness of the sweetener alone
Protocol: This solution was then ranked against 5, 6, 6.5 and 7% (w/v) sucrose solutions. This was repeated for 45 ppm Luo Han Guo extract. The average score of each solution was determined. […] These solutions were then ranked against 5, 6, 6.5 and 7% (w/v) sucrose solutions. The average score of each solution was determined.

[5] = tested on: expert panel of three people (trained flavourists); experiment: Descriptive taste test in 5% sucrose and 0.03% citric acid compared to Luo Han Guo extract; details: for Taste description: added to 5% sucrose and 0.03% citric acid; for Sweet quality compared to Luo Han Guo extract: in 5% sucrose and 0.03% citric acid
Protocol: (§1) The taste of various concentrations of mixture 1 was tested by an expert panel of three people (trained flavourists) in solutions containing 5% sucrose and 0.03% citric acid. The taste was compared to the Luo Han Guo extract used in Example 2 (obtained from Azile LCC (Rolling Hills Est, California) (extract 1 of Example 1 above) and containing about 68 wt % mogrosides) (combined with the same 5% sucrose and 0.03% citric acid solution).
as §1, with “these sweeteners” for “various concentrations of mixture 1”, “mogrosides).” for “mogrosides) (combined with the same 5% sucrose and 0.03% citric acid solution).”

## C[C@H](CC[C@@H](O[C@@H]1O[C@H](CO[C@@H]2O[C@H](CO)[C@@H](O)[C@H](O)[C@H]2O)[C@@H](O)[C@H](O)[C@H]1O[C@@H]1O[C@H](CO)[C@@H](O)[C@H](O)[C@H]1O)C(C)(C)O)[C@H]1CC[C@@]2(C)[C@@H]3CC=C4[C@@H](CC[C@H](O[C@@H]5O[C@H](CO[C@@H]6O[C@H](CO)[C@@H](O)[C@H](O)[C@H]6O)[C@@H](O)[C@H](O)[C@H]5O)C4(C)C)[C@]3(C)[C@@H](O)C[C@]12C [11-epi-mogroside V, 3-O-β-D-glucopyranosyl(1→6)-β-D-glucopyranosyl-11β-OH-mogrol-24-O-β-D-glucopyranosyl-(1→2)-[β-D-glucopyranosyl-(1→6)]-β-D-glucopyranosyl]
[1]; Table 20, 25 ppm
  Astringent, average score: 0
  Lingering Sweet, average score: 0
  Overall Sweet, average score: 0.17
  Upfront Sweet, average score: 0.33
  Volatile Off-Note, average score: 0
[2]; 374 ppm in water
  Sweet equivalence concentration to sucrose: 1.31 % sucrose
[2]
  Iso-sweet potency: 35 times of sweetness of sucrose

## C[C@H](CC[C@@H](O[C@@H]1O[C@H](CO)[C@@H](O)[C@H](O)[C@H]1O[C@@H]1O[C@H](CO)[C@@H](O)[C@H](O)[C@H]1O)C(C)(C)O)[C@H]1CC[C@@]2(C)[C@H]3CC=C4[C@@H](CC[C@H](O[C@@H]5O[C@H](CO[C@@H]6O[C@H](CO)[C@@H](O)[C@H](O)[C@H]6O)[C@@H](O)[C@H](O)[C@H]5O)C4(C)C)[C@]3(C)[C@H](O)C[C@]12C [Mogroside IV]
[3]; Table 10, 25 ppm Mogroside IV, 7 panelists
  Total of sweetness ranks: 13
[3]; Table 10, 30 ppm Mogroside IV, 7 panelists
  Total of sweetness ranks: 20
[4]; 30 ppm in 5% (w/v) sucrose
  Average Score: 6.2
[5]
  Taste description: good and similar sweetness as mogroside V
  Sweet quality compared to Luo Han Guo extract: better than Luo Han Guo extract in terms of sweet quality
[1]; Table 16, 30 ppm
  Astringent, average score: 0
  Lingering Sweet, average score: 0
  Overall Sweet, average score: 0.4
  Upfront Sweet, average score: 0.4
  Volatile Off-Note, average score: 0

## OC[C@H]1O[C@@](CO)(O[C@H]2O[C@H](CO)[C@@H](O)[C@H](O)[C@H]2O)[C@@H](O)[C@@H]1O [Sucrose]
[3]; Table 6, 1% Sucrose reference, 10 panelists
  Total of sweetness ranks: 33
[3]; Table 6, 1.5% Sucrose reference
  Sweetness rank by panelist: 4 and 5
[3]; Table 6, 1.5% Sucrose reference, 10 panelists
  Total of sweetness ranks: 47
[3]; Table 9, 0.5% Sucrose reference, 6 panelists
  Total of sweetness ranks: 8
[3]; Table 9, 1% Sucrose reference
  Sweetness rank by panelist: 3 and 2 and 4
[3]; Table 9, 1% Sucrose reference, 6 panelists
  Total of sweetness ranks: 19
[3]; Table 9, 1.5% Sucrose reference
  Sweetness rank by panelist: 5 and 4
[3]; Table 9, 1.5% Sucrose reference, 6 panelists
  Total of sweetness ranks: 29
[3]; Table 10, Sucrose 0.5% reference, 7 panelists
  Total of sweetness ranks: 14
[3]; Table 10, Sucrose 1% reference, 7 panelists
  Total of sweetness ranks: 23
[3]; Table 10, Sucrose 1.5% reference
  Sweetness rank by panelist: 5
[3]; Table 10, Sucrose 1.5% reference, 7 panelists
  Total of sweetness ranks: 35
[3]; Table 11, Sucrose 0.5% reference
  Sweetness rank by panelist: 1 and 2
[3]; Table 11, Sucrose 0.5% reference, 7 panelists
  Total of sweetness ranks: 8
[3]; Table 11, Sucrose 1% reference
  Sweetness rank by panelist: 4 and 2 and 3
[3]; Table 11, Sucrose 1% reference, 7 panelists
  Total of sweetness ranks: 24
[3]; Table 11, Sucrose 1.5% reference
  Sweetness rank by panelist: 5
[3]; Table 11, Sucrose 1.5% reference, 7 panelists
  Total of sweetness ranks: 35
[3]; Table 12, Sucrose 0.5% reference, 7 panelists
  Total of sweetness ranks: 9
[3]; Table 12, Sucrose 1% reference
  Sweetness rank by panelist: 2 and 3
[3]; Table 12, Sucrose 1% reference, 7 panelists
  Total of sweetness ranks: 17
[3]; Table 12, Sucrose 1.5% reference
  Sweetness rank by panelist: 3 and 4
[3]; Table 12, Sucrose 1.5% reference, 7 panelists
  Total of sweetness ranks: 27
[3]; Table 13, 0.5% Sucrose reference, 9 panelists
  Total of sweetness ranks: 15
[3]; Table 13, 1% Sucrose reference
  Sweetness rank by panelist: 3 and 4 and 2
[3]; Table 13, 1% Sucrose reference, 9 panelists
  Total of sweetness ranks: 31
[3]; Table 13, 1.5% Sucrose reference
  Sweetness rank by panelist: 5 and 4
[3]; Table 13, 1.5% Sucrose reference, 9 panelists
  Total of sweetness ranks: 44

## 3-O-β-D-glucopyranosyl(1→6)-β-D-glucopyranosyl-mogrol-24-O-β-D-glucopyranosyl-(1→6-[β-D-glucopyranosyl-(1→4)-β-D-glucopyranosyl-(1→2)]-β-D-glucopyranosyl [iso-mogroside VI]
[1]; Table 20, 25 ppm in 5% sucrose and 0.03% citric acid
  Comments: Slightly acidic
[1]; Table 20, 25 ppm
  Astringent, average score: 0
  Lingering Sweet, average score: 0.2
  Overall Sweet, average score: 0.2
  Upfront Sweet, average score: 0.2
  Volatile Off-Note, average score: 0
[2]; 100 ppm in water
  Sweet equivalence concentration to sucrose: 0.91 % sucrose
[2]
  Iso-sweet potency: 91 times of sweetness of sucrose

## C[C@H](CC[C@@H](O[C@@H]1O[C@H](CO[C@@H]2O[C@H](CO)[C@@H](O)[C@H](O)[C@H]2O)[C@@H](O)[C@H](O)[C@H]1O[C@@H]1O[C@H](CO)[C@@H](O)[C@H](O)[C@H]1O)C(C)(C)O)[C@H]1CC[C@@]2(C)[C@H]3CC=C4[C@@H](CC[C@H](O[C@@H]5O[C@H](CO)[C@@H](O)[C@H](O)[C@H]5O)C4(C)C)[C@]3(C)[C@H](O)C[C@]12C [Siamenoside]
[3]; Table 11, Siamenoside 20 ppm, 7 panelists
  Total of sweetness ranks: 19
[3]; Table 11, Siamenoside 25 ppm
  Sweetness rank by panelist: 2 and 3 and 4
[3]; Table 11, Siamenoside 25 ppm, 7 panelists
  Total of sweetness ranks: 19
[4]; 25 ppm in 5% (w/v) sucrose
  Average Score: 6.4
[4]
  Sweetness enhancer effect: act as sweetness enhancers
[5]
  Taste description: more sweet body, sweeter, rounder with a little more upfront and more round lasting sweet
  Sweet quality compared to Luo Han Guo extract: better than Luo Han Guo extract in terms of sweet quality
[1]; Table 16, 25 ppm
  Astringent, average score: 0.4
  Lingering Sweet, average score: 0.6
  Overall Sweet, average score: 1.8
  Upfront Sweet, average score: 1.4
  Volatile Off-Note, average score: 0.2

## C[C@H](CC[C@@H](O[C@@H]1O[C@H](CO[C@H]2O[C@H](CO)[C@H](O)[C@H](O)[C@H]2O)[C@@H](O)[C@H](O)[C@H]1O[C@@H]1O[C@H](CO)[C@@H](O)[C@H](O)[C@H]1O)C(C)(C)O)[C@H]1CC[C@@]2(C)[C@H]3CC=C4[C@@H](CC[C@H](O[C@@H]5O[C@H](CO[C@@H]6O[C@H](CO)[C@@H](O)[C@H](O)[C@H]6OC6O[C@H](CO)[C@@H](O)[C@H](O)[C@H]6O)[C@@H](O)[C@H](O)[C@H]5O)C4(C)C)[C@]3(C)[C@H](O)C[C@]12C (stereo partly shown) [Neomogroside]
[3]; Table 13, 25 ppm Neomogroside, 9 panelists
  Total of sweetness ranks: 16
[3]; Table 13, 30 ppm Neomogroside, 9 panelists
  Total of sweetness ranks: 29
[4]; 30 ppm in 5% (w/v) sucrose
  Average Score: 6.35
[4]
  Sweetness enhancer effect: act as sweetness enhancers
[5]
  Taste description: sweetness, but slightly bitter aftertaste
  Sweet quality compared to Luo Han Guo extract: better than Luo Han Guo extract in terms of sweet quality
[1]; Table 16, 30 ppm
  Astringent, average score: 0
  Lingering Sweet, average score: 0.4
  Overall Sweet, average score: 1.4
  Upfront Sweet, average score: 1
  Volatile Off-Note, average score: 0
